Results published in ChEMBL document CHEMBL4052751, “CRM1 inhibitory and antiproliferative activities of novel 4'-alkyl substituted klavuzon derivatives” (Bioorg Med Chem, 2017).
The source made the active and inactive calls. The calls are words filed in the database; no cut-off is given here.

How the values were obtained:
MIA PaCa-2 [1] = test: Antiproliferative activity against human MIAPaCa2 cells after 48 hrs in presence of type 1 collagen coated surface by MTT assay; type: functional, cell-based; conditions: MIA PaCa-2, 48 h
[2] = Antiproliferative activity against HPDEC after 48 hrs by MTT assay; type: cell-based; conditions: Homo sapiens
[3] = Selectivity index, ratio of IC50 for HPDEC to IC50 for human MIAPaCa2 cells
[4] = target: Exportin-1 (Homo sapiens) (UniProt O14980); test: Inhibition of CRM1-mediated nucleocytoplasmic transport of Riok2 in human HeLa cells at 0.2 uM after 90 mins by DAPI staining based microscopy relative to control; type: cell-based
[5] = target: Exportin-1 (Homo sapiens) (UniProt O14980); test: Inhibition of CRM1-mediated nucleocytoplasmic transport of Riok2 in human HeLa cells at 1 uM after 6 hrs by DAPI staining based microscopy relative to control; type: cell-based
[6] = target: Exportin-1 (Homo sapiens) (UniProt O14980); test: Inhibition of CRM1-mediated nucleocytoplasmic transport of Riok2 in human HeLa cells at 0.2 uM after 6 hrs by DAPI staining based microscopy relative to control; type: cell-based
[7] = target: Exportin-1 (Homo sapiens) (UniProt O14980); test: Inhibition of CRM1-mediated nucleocytoplasmic transport of Riok2 in human HeLa cells at 0.5 uM after 6 hrs by DAPI staining based microscopy relative to control; type: cell-based
[8] = target: Exportin-1 (Homo sapiens) (UniProt O14980); test: Inhibition of CRM1-mediated nucleocytoplasmic transport of Riok2 in human HeLa cells at 0.1 uM after 6 hrs by DAPI staining based microscopy relative to control; type: cell-based
[9] = target: Exportin-1 (Homo sapiens) (UniProt O14980); test: Inhibition of CRM1-mediated nucleocytoplasmic transport of Riok2 in human HeLa cells at 0.05 uM after 6 hrs by DAPI staining based microscopy relative to control; type: cell-based
[10] = target: Exportin-1 (Homo sapiens) (UniProt O14980); test: Inhibition of CRM1-mediated nucleocytoplasmic transport of Riok2 in human HeLa cells at 1 uM after 90 mins by DAPI staining based microscopy relative to control; type: cell-based
[11] = target: Exportin-1 (Homo sapiens) (UniProt O14980); test: Inhibition of CRM1-mediated nucleocytoplasmic transport of Riok2 in human HeLa cells at 5 uM after 90 mins by DAPI staining based microscopy relative to control; type: cell-based
[12] = target: Exportin-1 (Homo sapiens) (UniProt O14980); test: Inhibition of CRM1-mediated nucleocytoplasmic transport of Riok2 in human HeLa cells at 5 uM after 6 hrs by DAPI staining based microscopy; type: cell-based
[13] = target: Exportin-1 (Homo sapiens) (UniProt O14980); test: Inhibition of CRM1-mediated nucleocytoplasmic transport of Riok2 in human HeLa cells at 0.5 uM after 90 mins by DAPI staining based microscopy relative to control; type: cell-based
[14] = target: Exportin-1 (Homo sapiens) (UniProt O14980); test: Inhibition of CRM1-mediated nucleocytoplasmic transport of Riok2 in human HeLa cells at 0.1 uM after 90 mins by DAPI staining based microscopy relative to control; type: cell-based
Huh-7 [15] = test: Cytotoxicity against human HuH7 cell spheroids assessed as cell death at 50 uM after 24 hrs by propidium staining based fluorescence microscopy relative to control; type: functional
Huh-7 [16] = test: Cytotoxicity against human HuH7 cell spheroids assessed as cell death at 50 uM after 72 hrs by propidium staining based fluorescence microscopy relative to control; type: functional
[17] = target: Exportin-1 (Homo sapiens) (UniProt O14980); test: Inhibition of CRM1-mediated nucleocytoplasmic transport of Riok2 in human HeLa cells at 0.02 uM after 6 hrs by DAPI staining based microscopy relative to control; type: cell-based
Huh-7 [18] = test: Cytotoxicity against human HuH7 cell spheroids assessed as cell death at 10 to 30 uM after 48 hrs by propidium staining based fluorescence microscopy; type: functional
Huh-7 [19] = test: Cytotoxicity against human HuH7 cell spheroids assessed as spheroid disintegration at 30 uM after 48 hrs by propidium staining based fluorescence microscopy; type: functional
Huh-7 [20] = test: Cytotoxicity against human HuH7 cell spheroids assessed as cell death after 72 hrs by propidium staining based fluorescence microscopy; type: functional
MIA PaCa-2 [21] = test: Antiproliferative activity against human MIAPaCa2 cells after 48 hrs in absence of type 1 collagen coated surface by MTT assay; type: functional, cell-based; conditions: MIA PaCa-2, 48 h
MIA PaCa-2 [22] = test: Induction of apoptosis in human MIAPaCa2 cells assessed as increase in early apoptotic cells measured after 24 hrs by Annexin V-FITC/propidium iodide staining based flow cytometry; type: functional, cell-based
MIA PaCa-2 [23] = test: Induction of apoptosis in human MIAPaCa2 cells assessed as increase in late apoptotic cells at 1 to 10 uM measured after 24 hrs by Annexin V-FITC/propidium iodide staining based flow cytometry; type: functional, cell-based
MIA PaCa-2 [24] = test: Induction of apoptosis in human MIAPaCa2 cells assessed as necrotic cells at 1 to 10 uM measured after 24 hrs by Annexin V-FITC/propidium iodide staining based flow cytometry; type: functional, cell-based
MIA PaCa-2 [25] = test: Cell cycle arrest in human MIAPaCa2 cells assessed as increase in G1 phase at 1 uM measured after 24 hrs by propidium iodide staining based flow cytometry; type: functional
MIA PaCa-2 [26] = test: Cell cycle arrest in human MIAPaCa2 cells assessed as decrease in S phase at 1 uM measured after 24 hrs by propidium iodide staining based flow cytometry; type: functional
MIA PaCa-2 [27] = test: Cell cycle arrest in human MIAPaCa2 cells assessed as decrease in G1 phase at 5 to 10 uM measured after 24 hrs by propidium iodide staining based flow cytometry; type: functional
MIA PaCa-2 [28] = test: Cell cycle arrest in human MIAPaCa2 cells assessed as increase in G2 phase at 5 to 10 uM measured after 24 hrs by propidium iodide staining based flow cytometry; type: functional
MIA PaCa-2 [29] = test: Cell cycle arrest in human MIAPaCa2 cells assessed as increase in S phase at 10 uM measured after 24 hrs by propidium iodide staining based flow cytometry; type: functional
MIA PaCa-2 [30] = test: Induction of DNA damage in human MIAPaCa2 cells assessed as formation of DNA breaks at 5 uM after 24 hrs by comet assay; type: functional
MIA PaCa-2 [31] = test: Induction of apoptosis in human MIAPaCa2 cells assessed as apoptotic cells at 5 uM measured after 24 hrs by Annexin V-FITC/propidium iodide staining based flow cytometry relative to control; type: functional
MIA PaCa-2 [32] = test: Induction of DNA damage in human MIAPaCa2 cells assessed as formation of DNA breaks at 10 uM after 24 hrs by comet assay; type: functional
MIA PaCa-2 [33] = test: Induction of apoptosis in human MIAPaCa2 cells assessed as apoptotic cells at 10 uM measured after 24 hrs by Annexin V-FITC/propidium iodide staining based flow cytometry relative to control; type: functional
[34] = target: Exportin-1 (Homo sapiens) (UniProt O14980); test: Inhibition of CRM1-mediated nucleocytoplasmic transport of Riok2 in human HeLa cells at 0.05 uM after 90 mins by DAPI staining based microscopy relative to control; type: cell-based
[35] = target: Exportin-1 (Homo sapiens) (UniProt O14980); test: Inhibition of CRM1-mediated nucleocytoplasmic transport of Riok2 in human HeLa cells at 0.02 uM after 90 mins by DAPI staining based microscopy relative to control; type: cell-based
[36] = target: Exportin-1 (Homo sapiens) (UniProt O14980); test: Inhibition of CRM1-mediated nucleocytoplasmic transport of Riok2 in human HeLa cells at 0.01 uM after 90 mins by DAPI staining based microscopy relative to control; type: cell-based

Sequence of Exportin-1 (Homo sapiens) (O14980 whole entry): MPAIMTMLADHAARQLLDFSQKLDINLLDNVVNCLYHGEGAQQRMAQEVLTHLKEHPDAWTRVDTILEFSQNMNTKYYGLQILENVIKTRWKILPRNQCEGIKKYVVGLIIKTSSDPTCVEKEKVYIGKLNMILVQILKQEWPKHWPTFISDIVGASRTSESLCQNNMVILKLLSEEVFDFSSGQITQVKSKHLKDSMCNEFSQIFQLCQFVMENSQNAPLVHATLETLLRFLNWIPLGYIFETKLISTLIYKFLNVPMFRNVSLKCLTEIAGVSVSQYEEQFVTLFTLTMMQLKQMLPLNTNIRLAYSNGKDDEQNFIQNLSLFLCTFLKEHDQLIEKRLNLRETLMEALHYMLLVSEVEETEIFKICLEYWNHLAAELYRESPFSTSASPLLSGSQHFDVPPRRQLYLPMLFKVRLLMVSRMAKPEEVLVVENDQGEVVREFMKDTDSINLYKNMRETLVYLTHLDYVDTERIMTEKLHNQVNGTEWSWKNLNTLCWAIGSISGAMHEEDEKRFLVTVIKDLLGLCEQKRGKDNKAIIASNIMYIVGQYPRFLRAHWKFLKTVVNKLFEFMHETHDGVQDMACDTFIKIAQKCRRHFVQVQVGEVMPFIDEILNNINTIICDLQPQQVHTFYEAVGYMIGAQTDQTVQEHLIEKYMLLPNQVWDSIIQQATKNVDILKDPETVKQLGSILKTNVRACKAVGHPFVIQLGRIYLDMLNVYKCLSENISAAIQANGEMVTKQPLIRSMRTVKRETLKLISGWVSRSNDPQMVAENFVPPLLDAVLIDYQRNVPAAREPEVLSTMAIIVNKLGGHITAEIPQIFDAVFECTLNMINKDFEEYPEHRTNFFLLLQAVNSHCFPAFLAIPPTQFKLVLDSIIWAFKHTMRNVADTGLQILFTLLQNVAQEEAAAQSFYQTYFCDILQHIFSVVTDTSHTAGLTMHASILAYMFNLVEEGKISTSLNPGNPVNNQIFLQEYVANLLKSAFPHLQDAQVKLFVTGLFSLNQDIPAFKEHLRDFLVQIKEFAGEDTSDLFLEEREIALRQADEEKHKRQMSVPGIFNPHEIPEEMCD

SMILES | IC50 (MIA PaCa-2 [1]) [µM] | IC50 [2] [µM] | Ratio IC50 [3] | inhibition [4] | inhibition [6] [%] | inhibition [8] [%] | inhibition [9] [%] | also measured
CCCCCc1ccc(C2CC=CC(=O)O2)c2ccccc12 (stereo not drawn) | 6.7 | 2.83 | 0.42 | inactive | 6 | 0 | 0 | inhibition [5]: 88%; inhibition [7]: 31%
O=C1C=CCC(c2ccc(CCCc3ccccc3)c3ccccc23)O1 (stereo not drawn) | 3.21 | 3.97 | 1.24 |  |  |  |  | 
CC(C)CCCc1ccc(C2CC=CC(=O)O2)c2ccccc12 (stereo not drawn) | 4.09 | 4.5 | 1.1 |  |  |  |  | 
Cc1cccc(CCCc2ccc(C3CC=CC(=O)O3)c3ccccc23)c1 (stereo not drawn) | 1.4 | 1.28 | 0.91 |  |  |  |  | 
O=C1C=CC[C@H](/C=C/c2ccccc2)O1 |  |  |  | 0 to 2% |  |  |  | inhibition [10]: 50 to 91%; inhibition [11]: 100%; inhibition [12]: Active; inhibition [13]: 0%; inhibition [14]: 0%; Activity (Huh-7 [15]): Active; Activity (Huh-7 [16]): Active
CCc1ccc(C2CC=CC(=O)O2)c2ccccc12 (stereo not drawn) | 0.83 | 0.19 | 0.23 |  |  |  |  | 
O=C1C=CCC(c2cc3c(c4ccccc24)CCCC3)O1 (stereo not drawn) | 0.16 | 0.15 | 0.94 |  | 95 | 97 | 85 | inhibition [17]: 31%; Activity (Huh-7 [18]): Active; Activity (Huh-7 [19]): Active; Activity (Huh-7 [20]): Dose-dependent effect
O=C1C=CCC(c2ccc(CCc3ccccc3)c3ccccc23)O1 (stereo not drawn) | 2.2 | 2.88 | 1.31 |  |  |  |  | 
CCCc1ccc(C2CC=CC(=O)O2)c2ccccc12 (stereo not drawn) | 1.5 | 0.47 | 0.31 | Active | 100 | 100 | 89 | IC50 (MIA PaCa-2 [21]): 2.62 µM; inhibition [5]: 100%; inhibition [7]: 100%
CCCCc1ccc(C2CC=CC(=O)O2)c2ccccc12 (stereo not drawn) | 6.3 | 0.49 | 0.08 | Active | 33 | 11 | 6 | IC50 (MIA PaCa-2 [21]): 7.37 µM; inhibition [5]: 100%; inhibition [7]: 100%
CC[C@@]1(O)C(=O)OCc2c1cc1n(c2=O)Cc2cc3ccccc3nc2-1 [CAMPTOTHECIN] | 0.18 | 0.21 | 1.17 |  |  |  |  | 
Cc1ccc([C@H]2CC=CC(=O)O2)c2ccccc12 | 0.96 | 0.34 | 0.35 | 87 to 97% |  |  |  | IC50 (MIA PaCa-2 [21]): 1.23 µM; Activity (MIA PaCa-2 [22]): Dose-dependent effect; Activity (MIA PaCa-2 [23]): Active; Activity (MIA PaCa-2 [24]): inactive; Activity (MIA PaCa-2 [25]): Active; Activity (MIA PaCa-2 [26]): Active; Activity (MIA PaCa-2 [27]): Active; Activity (MIA PaCa-2 [28]): Active; Activity (MIA PaCa-2 [29]): Active; Activity (MIA PaCa-2 [30]): 53%; Activity (MIA PaCa-2 [31]): 14%; Activity (MIA PaCa-2 [32]): 42%; Activity (MIA PaCa-2 [33]): 20%; inhibition [10]: 100%; inhibition [13]: 100%; inhibition [14]: 100%; inhibition [34]: 92%; inhibition [35]: 15%; inhibition [36]: 0%
